Experimental data from patent US20260232658A1, “AZETIDINYL BENZOXAZOLE COMPOUNDS AND THEIR USE AS MER AND AXL INHIBITORS” (DONG-A ST CO., LTD., priority 2022, published 2026).

What was measured:
human MER (528-end) = target: T1, human MER (528-end) (Homo sapiens, UniProt Q12866); assay: HTRF kinase activity biochemical assay, MER; details: recombinant kinase, 10 uM ATP, 30 minutes pre-incubation; read-out: HTRF MERTK IC50;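 further: phosphorylation of a biotin-tagged tyrosine kinase substrate detected by Eu3+-cryptate antibody and streptavidin-XL665 time-resolved fluorescence, read after 1 h at room temperature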
T1 construct: human MER (528-end); purchased Carnabio, Japan
T1 sequence (Q12866 528-999 limits assumed): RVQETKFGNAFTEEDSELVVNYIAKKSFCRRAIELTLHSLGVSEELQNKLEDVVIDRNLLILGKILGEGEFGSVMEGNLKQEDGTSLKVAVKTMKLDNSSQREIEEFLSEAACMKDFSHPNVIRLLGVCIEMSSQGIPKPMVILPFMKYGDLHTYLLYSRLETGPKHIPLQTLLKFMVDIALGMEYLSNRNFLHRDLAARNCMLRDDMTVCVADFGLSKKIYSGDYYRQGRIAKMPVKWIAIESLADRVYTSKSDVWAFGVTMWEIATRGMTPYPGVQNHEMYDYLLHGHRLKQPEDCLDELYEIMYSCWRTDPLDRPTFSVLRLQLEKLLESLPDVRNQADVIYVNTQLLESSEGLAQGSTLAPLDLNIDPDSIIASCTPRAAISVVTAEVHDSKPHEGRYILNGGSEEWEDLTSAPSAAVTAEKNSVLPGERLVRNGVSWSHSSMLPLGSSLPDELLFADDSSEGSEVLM

human AXL (473-end) = target: T2, human AXL (473-end) (Homo sapiens, UniProt P30530); assay: HTRF kinase activity biochemical assay, AXL; details: recombinant kinase, 10 uM ATP, 30 minutes pre-incubation; read-out: HTRF AXL IC50;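 further: phosphorylation of a biotinylated tyrosine kinase substrate detected via Eu3+-cryptate anti-TK antibody and streptavidin-XL665, fluorescence read after a 1 h incubation at room temperature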
T2 construct: human AXL (473-end); purchased SignalChem, Canada
T2 sequence (P30530 473-894 limits assumed): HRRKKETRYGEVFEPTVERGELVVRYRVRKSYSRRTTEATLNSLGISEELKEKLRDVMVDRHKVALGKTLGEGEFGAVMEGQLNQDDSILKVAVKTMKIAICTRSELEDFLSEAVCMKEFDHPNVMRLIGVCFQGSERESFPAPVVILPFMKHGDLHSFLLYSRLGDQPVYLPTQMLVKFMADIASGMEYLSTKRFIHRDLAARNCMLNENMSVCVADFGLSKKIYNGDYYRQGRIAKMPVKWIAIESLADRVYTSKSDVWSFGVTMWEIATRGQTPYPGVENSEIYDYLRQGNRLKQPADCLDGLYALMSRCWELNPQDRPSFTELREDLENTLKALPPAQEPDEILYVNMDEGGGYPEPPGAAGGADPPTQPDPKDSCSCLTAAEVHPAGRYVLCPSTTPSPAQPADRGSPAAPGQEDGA

TYRO3 (455-end) = target: T3, TYRO3 (455-end) (Homo sapiens, UniProt Q06418); assay: HTRF kinase activity biochemical assay, TYRO3; details: recombinant kinase, 10 uM ATP, 30 minutes pre-incubation; read-out: HTRF TYRO IC50;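 further: biotinylated tyrosine kinase substrate phosphorylation detected via streptavidin-XL665 and Eu3+-cryptate anti-phospho antibody time-resolved fluorescence, read after 1 h detection at room temperature, 384-well format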
T3 construct: TYRO3 (455-end); purchased SignalChem, Canada
T3 sequence (Q06418 455-890 limits assumed): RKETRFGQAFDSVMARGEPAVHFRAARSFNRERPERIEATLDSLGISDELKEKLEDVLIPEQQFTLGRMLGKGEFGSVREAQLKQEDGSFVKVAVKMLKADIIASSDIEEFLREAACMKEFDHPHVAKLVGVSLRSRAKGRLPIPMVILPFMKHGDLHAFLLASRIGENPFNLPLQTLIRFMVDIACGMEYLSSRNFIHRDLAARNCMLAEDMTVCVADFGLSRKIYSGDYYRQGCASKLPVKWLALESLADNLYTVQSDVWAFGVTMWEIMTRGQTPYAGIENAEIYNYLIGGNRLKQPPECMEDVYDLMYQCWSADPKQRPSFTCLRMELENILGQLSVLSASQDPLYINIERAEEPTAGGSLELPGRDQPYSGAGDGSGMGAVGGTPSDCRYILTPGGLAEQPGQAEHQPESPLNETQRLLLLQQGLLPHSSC

IC50 (human MER (528-end)) [nM] | IC50 (human AXL (473-end)) [nM] | IC50 (TYRO3 (455-end)) [nM] | Structure (SMILES)
< 1 | 1.04 | 72 | Cn1cc(Nc2ncc(C3CN(c4nc5ccc(C6=CCCCC6)cc5o4)C3)nc2C(N)=O)cn1 [Example 6, 6-{1-[6-(cyclohex-1-en-1-yl)-1,3-benzoxazol-2-yl]azetidin-3-yl}-3-[(1-methyl-1H-pyrazol-4-yl)amino]pyrazine-2-carboxamide]
< 1 | 1 | 33 | Cn1cc(Nc2ncc(C3CN(c4nc5ccc(OC[C@H]6C[C@H]6CO)cc5o4)C3)nc2C(N)=O)cn1 [Example 58, 6-[1-(6-{1[(1S,2R)-2-(hydroxymethyl)cyclopropyl]methoxy}-1,3-benzoxazol-2-yl)azetidin-3-yl]-3-[(1-methyl-1H-pyrazol-4-yl)amino]pyrazine-2-carboxamide]
< 1 | 2 | 44 | Cn1cc(Nc2ncc(C3CN(c4nc5ccc(OCc6cn[nH]c6)cc5o4)C3)nc2C(N)=O)cn1 [Example 93, 3-[(1-methyl-1H-pyrazol-4-yl)amino]-6-(1-{6-[(1H-pyrazol-4-yl)methoxy]-1,3-benzoxazol-2-yl}azetidin-3-yl)pyrazine-2-carboxamide]
3 | 6 | 680 | Cn1cc(Nc2ncc(C3CN(c4nc5ccc(C6CCCCC6)cc5o4)C3)nc2C(N)=O)cn1 [Example 7, 6-[1-(6-cyclohexyl-1,3-benzoxazol-2-yl)azetidin-3-yl]-3-[(1-methyl-1H-pyrazol-4-yl)amino]pyrazine-2-carboxamide]
11 | 16 | 4300 | Cn1cc(Nc2ncc(C3CN(c4nc5ccc(CCC(=O)N6CCCC6)cc5o4)C3)nc2C(N)=O)cn1 [Example 63, 3-[(1-methyl-1H-pyrazol-4-yl)amino]-6-(1-{6-[3-oxo-3-(pyrrolidin-1-yl)propyl]-1,3-benzoxazol-2-yl}azetidin-3-yl)pyrazine-2-carboxamide]
3 | 10 | 430 | CC1(C)OCC(Cn2cc(Nc3ncc(C4CN(c5nc6ccc(F)cc6o5)C4)nc3C(N)=O)cn2)O1 (stereo not drawn) [Example 36D, 3-({1-[(2,2-dimethyl-1,3-dioxolan-4-yl)methyl]-1H-pyrazol-4-yl}amino)-6-[1-(6-fluoro-1,3-benzoxazol-2-yl)azetidin-3-yl]pyrazine-2-carboxamide]
2 | 3 | 2900 | Cn1cc(Nc2ncc(C3CN(c4nc5ccc(CC(=O)N6CCC[C@H]6CO)cc5o4)C3)nc2C(N)=O)cn1 [Example 66, 6-[1-(6-{2-[(2S)-2-(hydroxymethyl)pyrrolidin-1-yl]-2-oxoethyl}-1,3-benzoxazol-2-yl)azetidin-3-yl]-3-[(1-methyl-1H-pyrazol-4-yl)amino]pyrazine-2-carboxamide]
< 1 | 2 | 140 | Cn1cc(Nc2ncc(C3CN(c4nc5ccc(/C=C/CO)cc5o4)C3)nc2C(N)=O)cn1 [Example 32A, 6-(1-{6-[(1E)-3-hydroxyprop-1-en-1-yl]-1,3-benzoxazol-2-yl}azetidin-3-yl)-3-[(1-methyl-1H-pyrazol-4-yl)amino]pyrazine-2-carboxamide]
< 1 | 1 | 100 | Cn1cc(Nc2ncc(C3CN(c4nc5ccc(OCCCc6ccccc6)cc5o4)C3)nc2C(N)=O)cn1 [Example 60, 3-[(1-methyl-1H-pyrazol-4-yl)amino]-6-{1-[6-(3-phenylpropoxy)-1,3-benzoxazol-2-yl]azetidin-3-yl}pyrazine-2-carboxamide]
18 | 43 | 3230 | CCOC(=O)C(C)(C)c1ccc2nc(N3CC(c4cnc(Nc5cnn(C)c5)c(C(N)=O)n4)C3)oc2c1 [Example 111F, ethyl 2-[2-(3-{6-carbamoyl-5-[(1-methyl-1H-pyrazol-4-yl)amino]pyrazin-2-yl}azetidin-1-yl)-1,3-benzoxazol-6-yl]-2-methylpropanoate]
< 1 | 4 | 60 | Cn1cc(Nc2ncc(C3CN(c4nc5ccc(Br)cc5o4)C3)nc2C(N)=O)cn1 [Example 6A, 6-[1-(6-bromo-1,3-benzoxazol-2-yl)azetidin-3-yl]-3-[(1-methyl-1H-pyrazol-4-yl)amino]pyrazine-2-carboxamide]
27 | 78 | 2200 | Cn1cc(Nc2ccc(C3CN(c4nc5ccc(OCCC(C)(C)OP(=O)(O)O)cc5o4)C3)nc2C(N)=O)cn1 [Example 109, 4-{[2-(3-{6-carbamoyl-5-[(1-methyl-1H-pyrazol-4-yl)amino]pyridin-2-yl}azetidin-1-yl)-1,3-benzoxazol-6-yl]oxy}-2-methylbutan-2-yl dihydrogen phosphate]
< 1 | 1 | 26 | Cn1cc(Nc2ncc(C3CN(c4nc5ccc(OCC(C)(C)CO)cc5o4)C3)nc2C(N)=O)cn1 [Example 61, 6-{1-[6-(3-hydroxy-2,2-dimethylpropoxy)-1,3-benzoxazol-2-yl]azetidin-3-yl}-3-[(1-methyl-1H-pyrazol-4-yl)amino]pyrazine-2-carboxamide]
1 | 3 | 1070 | Cn1cc(Nc2ncc(C3CN(c4nc5ccc(CC(=O)N6CCC[C@@H]6C(F)(F)F)cc5o4)C3)nc2C(N)=O)cn1 [Example 81, 3-[(1-methyl-1H-pyrazol-4-yl)amino]-6-[1-(6-{2-oxo-2-[(2R)-2-(trifluoromethyl)pyrrolidin-1-yl]ethyl}-1,3-benzoxazol-2-yl)azetidin-3-yl]pyrazine-2-carboxamide]
1 | 4 | 120 | COCCOc1ccc(-c2ccc3nc(N4CC(c5cnc(Nc6cnn(C)c6)c(C(N)=O)n5)C4)oc3c2)cc1 [Example 100, 6-(1-{6-[4-(2-methoxyethoxy)phenyl]-1,3-benzoxazol-2-yl}azetidin-3-yl)-3-[(1-methyl-1H-pyrazol-4-yl)amino]pyrazine-2-carboxamide]
34 | 60 | 2680 | C[Si](C)(C)CCOCn1cc(Nc2ncc(C3CN(c4nc5ccc(O)cc5o4)C3)nc2C(N)=O)cn1 [Example 0, 6-[1-(6-hydroxy-1,3-benzoxazol-2-yl)azetidin-3-yl]-3-[(1-{[2-(trimethylsilyl)ethoxy]methyl}-1H-pyrazol-4-yl)amino]pyrazine-2-carboxamide]
1 | 3 | 82 | NC(=O)c1nc(C2CN(c3nc4ccc(F)cc4o3)C2)cnc1Nc1cnn(C2CCOCC2)c1 [Example 27, 6-[1-(6-fluoro-1,3-benzoxazol-2-yl)azetidin-3-yl]-3-{[1-(oxan-4-yl)-1H-pyrazol-4-yl]amino}pyrazine-2-carboxamide]
3 | 6 | 1740 | Cn1cc(Nc2ncc(C3CN(c4nc5ccc(OCC(CO)CO)cc5o4)C3)nc2C(N)=O)cn1 [Example 51, 6-(1-{6-[3-hydroxy-2-(hydroxymethyl)propoxy]-1,3-benzoxazol-2-yl}azetidin-3-yl)-3-[(1-methyl-1H-pyrazol-4-yl)amino]pyrazine-2-carboxamide]
< 1 | 2 | 110 | Cn1cc(Nc2ncc(C3CN(c4nc5ccc(OCC6(O)CCC6)cc5o4)C3)nc2C(N)=O)cn1 [Example 44, 6-(1-{6-[(1-hydroxycyclobutyl)methoxy]-1,3-benzoxazol-2-yl}azetidin-3-yl)-3-[(1-methyl-1H-pyrazol-4-yl)amino]pyrazine-2-carboxamide]
